This is an account of results in ChEMBL document CHEMBL1201862, “PubChem BioAssay data set” (2004).

Test systems include 786-0; A498; DU-145; EKVX; HT-29; IGROV-1; K562; MDA-MB-435; NCI-H226; NCI-H460; OVCAR-4; RPMI-8226; SF-539; SK-MEL-28; SN12C; SNB-75; TK-10; UACC-257; UO-31; SR.
Assay in all cases: NCI-60 cell line screen, 48 h

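Results reflect a 48-hour exposure of cells in 96-well plates to compound at five concentrations. Here, GI50 denotes the concentration required for 50% inhibition of growth.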 Calls of active or inactive are those of the source. Rule as the data show it: active = GI50 up to about 1.1 µM and inactive = higher.

Take `O=C(c1cc2ccccc2[nH]1)N1C2CCC1CN(CCOC(c1ccc(F)cc1)c1ccc(F)cc1)CC2` (centres undefined): the GI50 in the experiment with 786-0 is > 100 µM (inactive); in the experiment with A498, > 100 µM (inactive); in the experiment with DU-145 it was > 100 µM (inactive); in the experiment on EKVX, 8.55 µM (inactive); in the experiment with HT-29, 23.8 µM (inactive); in the experiment with IGROV-1 it was 2.26 µM (inactive). The GI50 in the experiment on K562 was 5.15 µM (inactive); in the experiment with MDA-MB-435 it was > 100 µM (inactive); in the experiment on NCI-H226, 6.9 µM (inactive); in the experiment with NCI-H460, 4.48 µM (inactive); with OVCAR-4 it was > 100 µM (inactive); with RPMI-8226 it was 9.2 µM (inactive). Also, the GI50 with SF-539 was 19.1 µM (inactive); with SK-MEL-28 it was > 100 µM (inactive); in the experiment with SN12C it was 18.2 µM (inactive); in the experiment with SNB-75, > 100 µM (inactive); in the experiment with TK-10, > 100 µM (inactive); in the experiment with UACC-257, 12.5 µM (inactive). Moreover, the GI50 in the experiment with UO-31 was 3.22 µM (inactive).
With `CN(C)CCCN1c2ccc([N+](=O)[O-])cc2CCc2cccc([N+](=O)[O-])c21`, the GI50 is 13.6 µM (inactive) in the experiment with 786-0; 17.4 µM (inactive) in the experiment on DU-145; 16.1 µM (inactive) in the experiment on EKVX; 13.7 µM (inactive) with HT-29; 14.9 µM (inactive) with IGROV-1; 14.8 µM (inactive) with K562. Besides, the GI50 in the experiment with MDA-MB-435 was 14.6 µM (inactive); in the experiment with NCI-H226, 13.3 µM (inactive); in the experiment with NCI-H460, 15.5 µM (inactive); in the experiment with OVCAR-4 it was 0.57 µM (active); in the experiment on RPMI-8226, 26.1 µM (inactive); with SF-539, 15.2 µM (inactive). The GI50 with SK-MEL-28 was 14.8 µM (inactive); with SN12C it was 15.1 µM (inactive); with SNB-75, 13.2 µM (inactive); with SR, 35.2 µM (inactive); in the experiment with TK-10, 11.1 µM (inactive); in the experiment with UACC-257, 14.3 µM (inactive).
Regarding `CC[C@H](NC1=C(Cl)C(=O)c2c(O)ccc(O)c2C1=O)C(=O)OC`, the GI50 was 4.69 µM (inactive) in the experiment on 786-0; > 10 µM (inactive) in the experiment with DU-145; > 10 µM (inactive) in the experiment on EKVX; 2.78 µM (inactive) with HT-29; > 10 µM (inactive) in the experiment on IGROV-1; 3.94 µM (inactive) in the experiment on K562. Further, the GI50 in the experiment with MDA-MB-435 was 3.26 µM (inactive); with NCI-H226, > 10 µM (inactive); in the experiment on NCI-H460, > 10 µM (inactive); in the experiment with OVCAR-4 it was 7.71 µM (inactive); in the experiment with RPMI-8226, > 10 µM (inactive); in the experiment on SF-539, 3.44 µM (inactive). The GI50 in the experiment with SN12C was 3.05 µM (inactive); in the experiment with SNB-75, > 10 µM (inactive); in the experiment on SR it was 1.64 µM (inactive); with TK-10, > 10 µM (inactive); in the experiment on UACC-257, 3.66 µM (inactive).
Take `CC1C(c2ccc3c(c2)OCO3)c2cc3c(cc2OC1N1CCCCC1)OCO3` (centres undefined): the GI50 was 61.5 µM (inactive) in the experiment with 786-0; 52.8 µM (inactive) with DU-145; 66.2 µM (inactive) with EKVX; 57.5 µM (inactive) in the experiment on HT-29; 56.6 µM (inactive) in the experiment with IGROV-1; 35.7 µM (inactive) with K562. The GI50 was 25.2 µM (inactive) in the experiment with MDA-MB-435; 77.8 µM (inactive) in the experiment with NCI-H460; 47.9 µM (inactive) with RPMI-8226; 50.8 µM (inactive) in the experiment on SF-539; 54.8 µM (inactive) with SK-MEL-28; > 100 µM (inactive) with SN12C. Also, the GI50 in the experiment with SR is 37.8 µM (inactive); with TK-10 it was > 100 µM (inactive); in the experiment on UACC-257, > 100 µM (inactive); in the experiment on UO-31, 77.1 µM (inactive).
As for `C/C(=N/NC(=S)Nc1ccc(C)cc1)c1ccccn1`, the GI50 in the experiment with 786-0 was 0.0427 µM (active); in the experiment on A498, 2.51 µM (inactive); in the experiment on DU-145, 0.794 µM (active); in the experiment with EKVX it was 0.0601 µM (active); in the experiment on HT-29 it was < 0.0366 µM (active); in the experiment with IGROV-1, < 0.0155 µM (active). Also, the GI50 in the experiment with K562 is < 0.0127 µM (active); in the experiment on MDA-MB-435, 1.07 µM (active); in the experiment with NCI-H226, 0.0908 µM (active); in the experiment on NCI-H460, 0.263 µM (active); in the experiment on OVCAR-4, 1.47 µM (inactive); in the experiment on RPMI-8226, < 0.0156 µM (active). Moreover, the GI50 in the experiment on SF-539 is 0.815 µM (active); in the experiment on SK-MEL-28, 2.1 µM (inactive); in the experiment on SN12C, 0.192 µM (active); in the experiment with SNB-75, 1.26 µM (inactive); with TK-10 it was 0.19 µM (active); in the experiment with UACC-257, < 0.0163 µM (active). Besides, the GI50 with UO-31 is 0.266 µM (active).
As to `CC(C)(C)OC(=O)NNC(=O)C1Cc2ccccc2OC1=O` (centres undefined), the GI50 with 786-0, in the experiment on DU-145, in the experiment with EKVX, in the experiment on HT-29, in the experiment on IGROV-1 and in the experiment with K562 was > 100 µM (inactive) throughout. Also, the GI50 in the experiment on MDA-MB-435, with NCI-H226, with NCI-H460, in the experiment with RPMI-8226, with SF-539 and in the experiment on SK-MEL-28 was > 100 µM (inactive) each time. Also, the GI50 in the experiment with SN12C, in the experiment on SR, in the experiment with TK-10, in the experiment on UACC-257 and in the experiment with UO-31 was > 100 µM (inactive) each time.
In the case of `Nc1c(C(=O)c2ccc(Cl)cc2)[nH]c(NCc2ccccc2)c1C(=S)Nc1ccccc1`, the GI50 in the experiment with 786-0 is 1.72 µM (inactive); with A498 it was 9.98 µM (inactive); with DU-145 it was 3.44 µM (inactive); in the experiment on EKVX, 7.21 µM (inactive); with HT-29 it was 1.94 µM (inactive); with IGROV-1, 2.37 µM (inactive). Further, the GI50 is 2.08 µM (inactive) with K562; 1.74 µM (inactive) with MDA-MB-435; 7.91 µM (inactive) with NCI-H226; 1.77 µM (inactive) in the experiment on NCI-H460; 1.66 µM (inactive) in the experiment with OVCAR-4; 1.79 µM (inactive) in the experiment on RPMI-8226. Moreover, the GI50 was 4.62 µM (inactive) with SF-539; 1.77 µM (inactive) in the experiment on SK-MEL-28; 4.89 µM (inactive) in the experiment on SN12C; 1.71 µM (inactive) in the experiment with SNB-75; 2.09 µM (inactive) in the experiment on TK-10; 1.67 µM (inactive) with UACC-257. Further, in the experiment on UO-31, the GI50 is 1.58 µM (inactive).
In the case of `CCOC(=O)CC1(Cc2ccc(OCc3ccccc3)cc2)C(=O)OC(c2ccccc2)N1C(=O)c1ccccc1` (centres undefined), the GI50 with 786-0, in the experiment with DU-145, in the experiment with EKVX, in the experiment with HT-29, with IGROV-1 and with K562 was > 100 µM (inactive) each time. The GI50 with MDA-MB-435 was > 100 µM (inactive); in the experiment with NCI-H226, > 100 µM (inactive); in the experiment with NCI-H460, 21.5 µM (inactive); in the experiment with OVCAR-4, > 100 µM (inactive); with RPMI-8226 it was > 100 µM (inactive); with SF-539, > 100 µM (inactive). In addition, the GI50 in the experiment on SK-MEL-28 was > 100 µM (inactive); with SN12C, > 100 µM (inactive); in the experiment on SR, > 100 µM (inactive); with TK-10, > 100 µM (inactive); in the experiment with UACC-257, > 100 µM (inactive); in the experiment on UO-31, 45.5 µM (inactive).
On to `N=C(N)n1nc2c(c1O)CCC2`, for which the GI50 with 786-0, with DU-145, in the experiment with HT-29, with IGROV-1, with K562 and with MDA-MB-435 was > 100 µM (inactive) in each case. Further, the GI50 in the experiment with NCI-H226, in the experiment on NCI-H460, in the experiment on OVCAR-4, in the experiment on SF-539, with SK-MEL-28 and in the experiment on SN12C was > 100 µM (inactive) each time. Moreover, the GI50 is > 100 µM (inactive) in the experiment with SNB-75; < 0.01 µM (active) in the experiment with SR; > 100 µM (inactive) in the experiment with TK-10; > 100 µM (inactive) in the experiment with UACC-257; > 100 µM (inactive) in the experiment on UO-31.
With `CSCCCN(CCCSC)CCCSC`, the GI50 in the experiment on 786-0 was > 100 µM (inactive); in the experiment with DU-145 it was > 100 µM (inactive); in the experiment on EKVX, > 100 µM (inactive); in the experiment on HT-29, > 100 µM (inactive); in the experiment with IGROV-1, > 100 µM (inactive); in the experiment with K562 it was 97.5 µM (inactive). Also, the GI50 is 55.6 µM (inactive) in the experiment on MDA-MB-435; > 100 µM (inactive) in the experiment on NCI-H460; > 100 µM (inactive) in the experiment with OVCAR-4; > 100 µM (inactive) in the experiment with SF-539; > 100 µM (inactive) in the experiment with SK-MEL-28; > 100 µM (inactive) in the experiment on SN12C. The GI50 was 48.5 µM (inactive) with SNB-75, 10.6 µM (inactive) with SR, > 100 µM (inactive) with UACC-257 and > 100 µM (inactive) in the experiment on UO-31.
For `O=S(=O)(O)c1ccc(/N=N/c2ccc(/N=N/c3c(O)ccc4ccccc34)cc2)cc1`, the GI50 in the experiment on 786-0 was > 100 µM (inactive); with DU-145, > 89.3 µM (inactive); with EKVX it was > 100 µM (inactive); in the experiment with HT-29, > 100 µM (inactive); in the experiment with IGROV-1 it was 38.6 µM (inactive); with K562, > 100 µM (inactive). Besides, the GI50 in the experiment on MDA-MB-435, with NCI-H226, in the experiment on NCI-H460, in the experiment on OVCAR-4, in the experiment on RPMI-8226 and in the experiment on SK-MEL-28 was > 100 µM (inactive) throughout. Moreover, the GI50 was > 100 µM (inactive) in the experiment on SN12C; > 100 µM (inactive) in the experiment with SNB-75; 4.76 µM (inactive) in the experiment on SR; > 100 µM (inactive) in the experiment with TK-10; > 100 µM (inactive) with UACC-257; > 100 µM (inactive) in the experiment with UO-31.
